Measurements reported in paper PMC4682109, “The experimental power of FR900359 to study Gq-regulated biological processes” (Nature Communications, 2015).
pEC50: −log10 of the molar value. Read-outs that look alike come from different tables or passages of the source. Starred links: 1 amine or outer side, 2 acyl side, 3 side chain; linkers in the order of their positions; H or OH if unused. Positions of bridges follow the written chain, without caps; N, C: chain ends. Non-standard residues stand in square brackets, D forms with d. Residues, ends and D or L forms follow the SMILES beside them. ξ: configuration not given here. *: point of attachment. Leu(3R-OH,Nα-propionyl) = CCC(=O)N[C@H](C(=O)*)[C@H](O)C(C)C; X1 = CC(C)[C@@H](O[*:3])[C@H](N[*:1])C(=O)[*:2]; NMeT = CN[C@H](C(=O)O)[C@@H](C)O; dPhLac = O=C(O)[C@H](O)Cc1ccccc1; NMeA = CN[C@@H](C)C(=O)O; NMeDha = C=C(NC)C(=O)O; ξNMeA = CNC(C)C(=O)O

Experiments:
[1] = target: T1, purified recombinant Gαq (GαqΔ34) (Mus musculus, UniProt P21279); experiment: [3H]GDP dissociation from purified Gαq; assay type: biochemical; details: for EC50: read-out: logEC50, inhibition of [3H]GDP dissociation (converted)
T1 construct: first 28 residues of rat Gαi1 (GNAI1, P10824 by own knowledge) (N); TEV-cleavage site (N); made in house; host or cells: insect cells (Sf9), pFastBac1 vector
T1 sequence (P21279 35-359): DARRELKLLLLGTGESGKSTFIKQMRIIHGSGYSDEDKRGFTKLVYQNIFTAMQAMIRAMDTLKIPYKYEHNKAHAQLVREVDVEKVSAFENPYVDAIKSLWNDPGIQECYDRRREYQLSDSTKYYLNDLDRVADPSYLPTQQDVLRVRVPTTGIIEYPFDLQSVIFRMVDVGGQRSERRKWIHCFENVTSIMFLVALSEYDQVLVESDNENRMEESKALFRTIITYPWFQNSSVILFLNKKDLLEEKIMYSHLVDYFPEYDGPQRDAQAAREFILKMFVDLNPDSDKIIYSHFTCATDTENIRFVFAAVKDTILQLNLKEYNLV
Procedure: GαqΔ34 (containing the first 28 residues of rat Gαi1 fused to mouse Gαq lacking the first 34 residues, and with a TEV-cleavage site between the Gαi1 and Gαq sequences) was purified after expression from a pFastBac1 vector in insect cells. Purified GαqΔ34 (∼7 mg ml^−1) was stored at −80 °C in 20 mM HEPES pH 8, 0.2 mM dithiothreitol, 2% (v/v) glycerol, 100 mM NaCl, 0.1 mg ml^−1 PMSF augmented with 10 mM NaF, 30 μM AlCl3, and 5 mM MgCl2.
[^3H]GDP exchange by Gαq was measured based on previous protocols. Briefly, purified GαqΔ34 (100 nM) was incubated with 1 μM [^3H]GDP (42,500 c.p.m. pmol^−1) and 50 mM (NH4)2SO4 for 18 h at 20 °C in assay buffer A (50 mM HEPES pH 7.5, 1 mM EDTA, 0.9 mM MgSO4, 1 mM dithiothreitol, and 0.05% Genapol C-100). Excess [^3H]GDP was removed from Gαq using a ZebaTM spin desalting column following the manufacturer's protocol (Thermo Scientific). Approximately 20% of Gαq incorporated the radiolabelled nucleotide. The reaction mixtures were then mixed with the same volume of assay buffer A in the presence of 0.1–2% dimethylsulphoxide (DMSO), 0–200 nM FR and 1.5 M (NH4)2SO4 to reach final concentrations of […] DMSO, 0–100 nM FR and 750 mM (NH4)2SO4 in the reaction. Dissociation of [^3H]GDP was monitored at 20 °C by stopping the reaction by addition of 4 ml of an ice-cold wash buffer (20 mM Tris pH 8.0, 100 mM NaCl and 2 mM MgSO4). The quenched mixtures were filtered through nitrocellulose membranes, the membranes were washed four times with ice-cold wash buffer, and the filters air-dried for at least 10 min. Radioactivity was quantified by scintillation spectrometry.
Supplementary Table 1: logEC values of the inhibitory effect of FR on [3H]GDP dissociation were
independent of the time point used for quantification.
[3H]GDP binding to purified Gαq proteins was quantified in presence of increasing concentrations of FR
after four different time points (30 min, 60 min, 90 min, 120 min). Data were analyzed by fitting [3H]GDP
binding versus FR concentration to the four parameter logistic function and the logarithm of the half
maximal effective concentrations (logEC50 expressed as means ± SEM from the respective curves in Fig.
7h) for FR-induced inhibition of [3H]GDP dissociation are presented.

[2] = target: T2, Gq (Cricetulus griseus, UniProt Q3HR10); experiment: IP1 accumulation in M1-CHO cells, carbachol; assay type: cell-based, Chinese hamster; details: carbachol 30 µM, means ± SEM of at least three experiments, read-out: pIC50, IP1 (% of 30 µM carbachol) (converted)
T2 construct: endogenous in cells; host or cells: M1-CHO cells
T2 sequence (Q3HR10 1-359): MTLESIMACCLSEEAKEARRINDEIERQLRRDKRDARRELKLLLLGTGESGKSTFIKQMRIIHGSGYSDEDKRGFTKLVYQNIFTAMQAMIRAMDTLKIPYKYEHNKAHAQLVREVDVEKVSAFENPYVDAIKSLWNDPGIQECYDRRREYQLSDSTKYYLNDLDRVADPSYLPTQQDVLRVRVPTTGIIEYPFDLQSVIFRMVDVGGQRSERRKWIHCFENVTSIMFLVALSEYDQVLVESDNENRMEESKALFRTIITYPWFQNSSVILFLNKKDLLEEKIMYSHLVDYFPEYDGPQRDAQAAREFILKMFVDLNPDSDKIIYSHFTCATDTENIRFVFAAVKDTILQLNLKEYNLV
Procedure: (§1) Quantification of intracellular cAMP and IP1 was performed using the HTRF-cAMP dynamic kit and the HTRF-IP1 kit, respectively, on a Mithras LB 940 reader (Berthold Technologies) according to the manufacturer's instructions. For cAMP assays with M2-CHO cells, the Gi-biased muscarinic agonist iper-6-phth (ref. [30]) was applied.
Supplementary Figure 12: Catalytic hydrogenation of FR to produce “FR-red” and determination of its Gq-inhibitory activity. (a) The exocyclic double bond (yellow box) of FR was hydrogenated by hydrogen gas in the presence of palladium/carbon as a catalyst in a pressure tube in analogy to a procedure published for the hydrogenation of YM2. The structure of the product FR-red was confirmed by high performance liquid chromatography coupled to electrospray ionization mass spectrometry (LCMS) and by 1H- and 13C-NMR spectra. (b) M1-CHO cells were pre-incubated with increasing concentrations of FR or (also on this page, place not known: “FR -red” hydrogen ation YM 2. -red FR a b -8 -7 -6 -5 0 25 50 75 100 FR compound (log M) IP1 (% of 30 µM carbachol) FR FR-red)
(1 picture or pasted object on this page, not shown here)
FR-red and IP1 accumulation was determined in response to carbachol (30 µM). Inhibition of Gq protein […]
± 0.05). Data are means ± SEM of at least three independent experiments each performed in triplicate.

[3] = tested on: HEK293 Gαq/11 knockout cells; experiment: Cell growth and Ki67 staining in HEK293 Gαq/11 knockout cells; assay type: cell-based; details: FR 10 μM
Procedure: For analysis of growth properties of HEK293 cells, 10^5 HEK 293 cells per well were seeded on a 6-well tissue culture plate. After 3 h cells were treated with either 10 μmol FR or 0.1% DMSO. After 72 h cell number was determined by counting in a Neubauer chamber.
Cells grown on coverslips were fixed with 4% paraformaldehyde in PBS and stained with antibodies as follows (in 0.2% Triton X in PBS, supplemented with 5% donkey serum; 2 h at room temperature): Ki67 MIB-1 (1:200, Covance) and vimentin (1:1,000, Chemicon). Primary antibodies were visualized by secondary antibodies conjugated to Cy5 (1:400, Jackson ImmunoResearch) diluted in 1 μg ml^−1 Hoechst 33342 (nuclei staining) at room temperature for 1 h. For documentation an inverted fluorescence microscope (Axiovert 200; Carl Zeiss MicroImaging, Inc.) equipped with a slider module (ApoTome; Carl Zeiss MicroImaging, Inc.), using filters for DAPI, GFP, Cy3 and Cy5, x25, x40 DIC Plan Apochromat oil objectives, an ebx 75 light source and an AxioCam MRm digital camera was used. Pictures were generated with the Axiovision Rel. 4.8 software (Zeiss).

[4] = tested on: HEK293 Gαq/11 knockout cells; experiment: Annexin V flow cytometry in HEK293 Gαq/11 knockout cells; assay type: cell-based; details: FR 10 μM, 72 h; representative experiment
Excerpt: For apoptosis analysis of HEK293 cells, cells were stained for Annexin V by use of the Annexin V-FITC Apoptosis Detection Kit (Calbiochem) according to the manufacturer's instructions.

[5] = tested on: B16 cells; experiment: XTT metabolic activity of B16 cells; assay type: cell-based, mouse; details: 72 h of FR treatment
Procedure: (§2) B16 cell viability in the presence of various concentrations of FR was measured using the XTT-based cell proliferation kit II (Fa. Roche) according to the manufacturer's protocols. Viability of HEK293 cell lines was assessed using a fluorimetric detection of resorufin (CellTiter-Blue Cell Viability Assay, Promega). Specifically, Gαq/11 ko-HEK293 and HEK293 cells were seeded at a density of 20,000 and 25,000 cells per well into black 96-well poly-D-lysine-coated plates with clear bottom, respectively. Three hours after seeding cells were treated with 0.3% DMSO or FR dissolved in medium for 24 h. To detect cell viability, CellTiter-Blue reagent was added and cells were incubated for 1 h at 37 °C according to the manufacturer's instructions. Fluorescence (excitation 560 nm, emission 590 nm) was measured using a FlexStation 3 Benchtop Multimode Plate Reader and data were expressed as percentage of cell viability relative to DMSO control.

[6] = tested on: HEK293 wild type and HEK293 Gαq/11 knockout cells; experiment: Cell viability (CellTiter-Blue, resazurin) in HEK293 wild type and Gαq/11 knockout cells; assay type: cell-based; details: supramaximal FR concentrations, 24 h
Procedure: as §2

[7] = tested on: ERK1/2; experiment: HTRF-based ERK1/2 phosphorylation assay in melanoma cell lines; parameters: species or system human and mouse; details: 1 μM, 1 h
Procedure: Quantification of phosphorylated ERK1/2 levels was performed using the phospho-ERK (Thr202/Tyr204) cellular assay kit (Cisbio). Melanoma cells were seeded into 96-well plates at a density of 25,000 or 50,000 cells per well and cultured overnight. The next day, medium was aspirated and cells were treated with 1 μM FR, 1 μM Trametinib, 1 μM Vemurafenib, or medium for 1 h at 37 °C. Subsequently, medium and inhibitors were removed and 50 μl lysis buffer were added to each well. The plates were incubated for 30 min at room temperature with shaking to lyse the cells and then frozen overnight at −20 °C. Lysates (16 μl) were transferred to a white 384-well plate. Anti-phospho-ERK1/2-d2 (2 μl) and anti-phospho-ERK1/2-Eu3^+-cryptate (2 μl) were added to each well and plates were incubated in the dark for 2 h at room temperature. Time-resolved fluorescence resonance energy transfer (FRET) signals were measured using the Mithras LB 940 multimode reader (Berthold Technologies).

[8] = tested on: Gi-sensitive prostaglandin D2 receptor DP2/CRTH2; experiment: cAMP lowering (HTRF), Gi-sensitive CRTH2 in CRTH2-HEK293; assay type: cell-based; details: CRTH2-RLuc-GFP2-β-arrestin2-HEK293, PTX pretreatment
Procedure: as §1

[9] = tested on: CRTH2 β-arrestin2 recruitment; experiment: BRET2 β-arrestin2 recruitment to CRTH2; assay type: cell-based; details: CRTH2-RLuc-GFP2-β-arrestin2-HEK293; PTX 16-20 h, FR 30 min
Procedure: For BRET^2 assays on HEK293 cells stably expressing CRTH2-Luc and GFP^2-β-arrestin2, cells were detached and resuspendend in HBSS with 20 mM HEPES at a density of 1.06 × 10^6 cells per ml. Cell suspension (170 μl) was distributed into white 96-well microplates and incubated in the presence of 10 μl buffer or agonist for 5 min before substrate addition. DeepBlueC coelenterazine (Gold Biotechnology, MO, USA; 20 μl per well) was injected by injector 3 to yield a final concentration of 5 μM. To detect BRET, light emissions at 400 and 515 nm were measured sequentially using a Mithras LB 940 instrument. The BRET signal (BRET ratio) was determined by calculating the ratio of the light emitted by the fluorescence acceptor (515 nm) and the light emitted by Rluc (400 nm). The cells were pretreated with PTX for 16–20 h and FR for 30 min.

C=C1C(=O)N[C@@H](C)C(=O)N(C)[C@@H](C)C(=O)N[C@@H]([C@H](OC(=O)[C@@H](NC(=O)CC)[C@H](O)C(C)C)C(C)C)C(=O)N(C)[C@@H]([C@@H](C)OC)C(=O)O[C@H](C(C)C)[C@H](NC(C)=O)C(=O)O[C@H](Cc2ccccc2)C(=O)N1C [FR, FR900359] (Ac-[X1][dPhLac][NMeDha]A[NMeA][X1](Leu(3R-OH,Nα-propionyl))[NMeT](Me); ester 1-C)
pEC50 ([1]; [3H]GDP binding to Gαq after 120 min dissociation, 20 °C, read-out: half effective concentration, prevention of [3H]GDP dissociation): 7.82
EC50 ([1]; time 30 min): 15.5 nM
EC50 ([1]; time 60 min): 12.3 nM
EC50 ([1]; time 90 min): 13.2 nM
EC50 ([1]; time 120 min): 15.5 nM
IC50 [2]: 263 nM
percentage of proliferating cells (Ki67) ([3]; 24 h): did not alter
cell growth ([3]; 72 h): did not alter
Annexin V [4]: 2.06%
mitochondrial metabolism (XTT) [5]: did not compromise mitochondrial metabolism
cell viability / cellular metabolic homoeostasis [6]: does not disturb cellular metabolic homoeostasis

CCC(=O)N[C@H](C(=O)O[C@H](C(C)C)[C@@H]1NC(=O)[C@H](C)N(C)C(=O)[C@H](C)NC(=O)C(C)N(C)C(=O)[C@@H](Cc2ccccc2)OC(=O)[C@@H](NC(C)=O)[C@@H](C(C)C)OC(=O)[C@H]([C@@H](C)OC)N(C)C1=O)[C@H](O)C(C)C (stereo partly drawn) [FR-red] (Ac-[X1][dPhLac][ξNMeA]A[NMeA][X1](Leu(3R-OH,Nα-propionyl))[NMeT](Me); ester 1-C)
IC50 [2]: 891 nM

CC(=O)Nc1cccc(-n2c(=O)n(C3CC3)c(=O)c3c(Nc4ccc(I)cc4F)n(C)c(=O)c(C)c32)c1 [Trametinib]
ERK phosphorylation [7]: blunted ERK phosphorylation in all cell lines

CCCS(=O)(=O)Nc1ccc(F)c(C(=O)c2c[nH]c3ncc(-c4ccc(Cl)cc4)cc23)c1F [Vemurafenib]
ERK phosphorylation [7]: inhibited ERK activation only in cell lines harbouring the mutant B-RafV600E allele

pertussis toxin [PTX]
CRTH2-dependent lowering of cAMP [8]: fully prevented
PGD2-induced β-arrestin recruitment to CRTH2 [9]: without effect
